# Legend:
# USP25-MDC1 interaction = assay: Co-IP of USP25-MDC1 interaction after DNA damage; type: cell-based; details: 5-Fu (20 uM), HEK293T and RKO
# Procedure: USP25 was immunoprecipitated and immunoblotted with p‐SQ/TQ. d) USP25 knockdowm U2OS cells rescued with USP25WT or USP25T523A were treated with IR (2 Gy), and co‐localization USP25 with γH2AX was detected by immunofluorescence. n>80 in each group. e) HEK293T cells were left untreated or treated with 5‐Fu (20 uM). MDC1 was immunoprecipitated and immunoblotted with USP25. f) HEK293T cells transfected with USP25 were treated with 5‐Fu (20 uM), and cell lysates were incubated with GST or GST‐MDC1 deletions in vitro. […] The interaction USP25 and MDC1‐BRCT was detected. h) Non‐phosphorylated or phosphorylated Thr523 peptide was conjugated to beads and incubated with purified GST‐MDC1‐BRCT domain in buffer.
# Flag was immunoprecipitated and immunoblotted with indicated antibodies. c-d) RKO cells were left untreated or treated with 5-Fu (20uM)(c) or IR(10Gy)(d). […] The interaction USP25 and MDC1-BRCT was detected.
# [1] = system: USP25 and MDC1 BRCT-domain / FHA-domain; assay: GST pull-down of USP25 with MDC1 deletions after 5-Fu; type: cell-based, human; details: 5-Fu (20 uM), HEK293T lysates
# Procedure: Figure 4 Regulation of the DDR signaling by USP25. a) HEK293T cells were left untreated or treated with IR (10 Gy) or 5‐Fu (20 uM). USP25 was immunoprecipitated and immunoblotted with phospho‐SQ/TQ (p‐SQ/TQ). b) HEK293T cells were pretreated with Ku55933 (25 µM) for 2 h followed by treatment with IR(10 Gy). After 1 h, USP25 was immunoprecipitated, left untreated, or treated with phosphatase and immunoblotted with p‐SQ/TQ. c) HEK293T cells transfected with USP25^WT and indicated constructs were left treated with IR(10 Gy). USP25 was immunoprecipitated and immunoblotted with p‐SQ/TQ. d) USP25 knockdowm U2OS cells rescued with USP25WT or USP25T523A were treated with IR (2 Gy), and co‐localization USP25 with γH2AX was detected by immunofluorescence. n>80 in each group. e) HEK293T cells were left untreated or treated with 5‐Fu (20 uM). […] The interaction USP25 and MDC1 deletions was detected. g) HEK293T cells transfected with USP25^WT or USP25^T523A were treated with IR, and cell lysates were incubated with GST or GST‐MDC1‐BRCT in vitro. The interaction USP25 and MDC1‐BRCT was detected. h) Non‐phosphorylated or phosphorylated Thr523 peptide was conjugated to beads and incubated with purified GST‐MDC1‐BRCT domain in buffer. […]
compound,measurement,setting,value
"O=c1[nH]cc(F)c(=O)[nH]1 [5‐Fu, 5‐fluorouracil]",USP25-MDC1 interaction after treatment,USP25-MDC1 interaction,increased following 5‐Fu or IR treatment
same,interaction of MDC1 domains with USP25 after treatment,[1],MDC1 BRCT‐domain but not FHA‐domain interacted with USP25
